Data from patent publication US8003660B2, “Modulators of muscarinic receptors” (Vertex Pharmaceuticals Incorporated, priority 2006, dated 2011).

What was measured:
Type in all cases: cell-based
[1] = biological target: T1, M4 muscarinic receptor (Homo sapiens, UniProt P08173); experiment: Functional mobilization of intracellular calcium (FLIPR) in CHO cells expressing M4; settings: for M4 Activity: CHO cells expressing M4, FLIPR calcium assay; for Emax: CHO, 100% efficacy = maximum response obtained with the Carbachol control
T1 construct: expressed in transfected cells; host or cells: CHO (M4-CHO)
T1 sequence (P08173 1-479): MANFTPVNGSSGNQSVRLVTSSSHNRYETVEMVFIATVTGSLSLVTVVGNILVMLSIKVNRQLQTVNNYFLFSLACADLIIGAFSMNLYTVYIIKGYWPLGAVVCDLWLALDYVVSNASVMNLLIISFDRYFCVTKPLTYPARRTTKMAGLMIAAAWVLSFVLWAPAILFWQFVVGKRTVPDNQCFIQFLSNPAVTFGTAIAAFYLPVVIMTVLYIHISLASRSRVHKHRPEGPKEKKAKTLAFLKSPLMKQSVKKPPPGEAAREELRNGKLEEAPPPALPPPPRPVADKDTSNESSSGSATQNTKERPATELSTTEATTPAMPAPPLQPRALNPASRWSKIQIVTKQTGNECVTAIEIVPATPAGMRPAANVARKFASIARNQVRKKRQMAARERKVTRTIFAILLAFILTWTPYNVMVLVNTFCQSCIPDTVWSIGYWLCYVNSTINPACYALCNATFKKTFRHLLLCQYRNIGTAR
How it was run: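 Calcium flux is read on FLIPR over 60 sec at 488/540 nm in muscarinic-receptor CHO lines. Antagonist mode adds carbachol at EC80 after 15 min compound preincubation or with simultaneous co-application. Agonist mode adds compound alone. Cells carry Fluo-3 or Calcium 3 dye in probenecid-containing pH 7.4 buffer, 0.5% DMSO final.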

[2] = biological target: T2, M3 muscarinic receptor (Homo sapiens, UniProt P20309); experiment: Functional mobilization of intracellular calcium (FLIPR) in CHO cells expressing M3; settings: for M3 Activity: CHO cells expressing M3, FLIPR calcium assay; for Emax: CHO, 100% efficacy = maximum response obtained with the Carbachol control
T2 construct: expressed in transfected cells; host or cells: CHO (M3-CHO)
How it was run: (§1)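 Recombinant CHO cells loaded with Fluo-3 AM or Calcium 3 dye in pH 7.4 buffer containing 1 mM probenecid, with 0.5% final DMSO. For agonism, compound is added directly. For inhibition, it is preincubated 15 min, or co-applied, before carbachol at EC80. FLIPR fluorescence (ex 488, em 540 nm) is recorded for 60 s.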

[3] = biological target: T3, M2 muscarinic receptor (Homo sapiens, UniProt P08172); experiment: Functional mobilization of intracellular calcium (FLIPR) in CHO cells expressing M2; settings: for M2 Activity: CHO cells expressing M2, FLIPR calcium assay; for Emax: CHO, 100% efficacy = maximum response obtained with the Carbachol control
T3 construct: expressed in transfected cells; host or cells: CHO (M2-CHO)
T3 sequence (P08172 1-466): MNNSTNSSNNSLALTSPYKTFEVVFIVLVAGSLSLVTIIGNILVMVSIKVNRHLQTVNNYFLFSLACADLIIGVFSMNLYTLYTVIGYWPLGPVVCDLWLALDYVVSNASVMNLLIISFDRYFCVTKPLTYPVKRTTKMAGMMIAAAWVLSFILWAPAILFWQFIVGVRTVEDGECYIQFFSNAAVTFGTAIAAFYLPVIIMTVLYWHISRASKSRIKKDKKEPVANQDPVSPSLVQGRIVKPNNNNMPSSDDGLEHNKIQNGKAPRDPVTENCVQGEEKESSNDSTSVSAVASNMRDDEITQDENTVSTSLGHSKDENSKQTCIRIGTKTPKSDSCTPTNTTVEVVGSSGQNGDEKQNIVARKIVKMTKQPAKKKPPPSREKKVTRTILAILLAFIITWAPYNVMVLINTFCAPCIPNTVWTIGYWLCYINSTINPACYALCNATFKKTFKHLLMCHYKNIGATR
How it was run: as §1

[4] = biological target: T4, M1 muscarinic receptor (Homo sapiens, UniProt P11229); experiment: Functional mobilization of intracellular calcium (FLIPR) in CHO cells expressing M1; settings: for M1 Activity: CHO cells expressing M1, FLIPR calcium assay; for Emax: CHO, 100% efficacy = maximum response obtained with the Carbachol control
T4 construct: expressed in transfected cells; host or cells: CHO (M1-CHO)
T4 sequence (P11229 1-460): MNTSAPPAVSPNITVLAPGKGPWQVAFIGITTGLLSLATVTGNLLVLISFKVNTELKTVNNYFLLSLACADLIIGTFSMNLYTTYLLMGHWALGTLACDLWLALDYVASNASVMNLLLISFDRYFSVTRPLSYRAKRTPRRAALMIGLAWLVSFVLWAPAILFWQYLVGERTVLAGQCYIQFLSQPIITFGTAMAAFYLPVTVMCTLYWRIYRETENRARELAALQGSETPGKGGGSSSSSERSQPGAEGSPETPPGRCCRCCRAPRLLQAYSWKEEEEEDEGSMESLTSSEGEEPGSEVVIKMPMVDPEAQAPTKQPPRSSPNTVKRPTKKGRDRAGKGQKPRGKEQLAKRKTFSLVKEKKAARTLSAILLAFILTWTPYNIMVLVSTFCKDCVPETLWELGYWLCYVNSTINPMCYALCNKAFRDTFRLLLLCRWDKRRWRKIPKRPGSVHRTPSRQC
How it was run: as §1

T2 sequence (P20309 whole entry): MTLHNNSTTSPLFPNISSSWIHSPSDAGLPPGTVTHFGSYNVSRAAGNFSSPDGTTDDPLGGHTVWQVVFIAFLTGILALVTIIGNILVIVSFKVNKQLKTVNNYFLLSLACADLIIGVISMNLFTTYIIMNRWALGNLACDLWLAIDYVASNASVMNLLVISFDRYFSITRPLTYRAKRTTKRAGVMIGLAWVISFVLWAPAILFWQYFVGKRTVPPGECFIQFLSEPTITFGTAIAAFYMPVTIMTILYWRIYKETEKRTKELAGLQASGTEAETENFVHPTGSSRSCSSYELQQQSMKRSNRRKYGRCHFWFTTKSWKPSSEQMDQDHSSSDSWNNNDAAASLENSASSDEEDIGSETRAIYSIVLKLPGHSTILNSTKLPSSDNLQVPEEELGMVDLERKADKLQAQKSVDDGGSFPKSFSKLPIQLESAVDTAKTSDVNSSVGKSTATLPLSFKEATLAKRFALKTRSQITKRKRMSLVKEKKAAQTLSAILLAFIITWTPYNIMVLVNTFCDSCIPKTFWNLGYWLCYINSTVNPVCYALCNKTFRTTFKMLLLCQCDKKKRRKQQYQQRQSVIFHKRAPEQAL

Compound	M4 Activity [1]	Emax [1] [%]	M3 Activity [2]	Emax [2] [%]	M2 Activity [3]	Emax [3] [%]	M1 Activity [4]	Emax [4] [%]
Cn1cncc1C(=O)N[C@H]1CCC2(CCN(CCC(C)(C)C)CC2)c2ccccc21 [compound 219]	+++ (activity was measured to be less than 2.0 μM)	25 to 100	+ (activity was measured to be greater than 5.0 μM)	< 25	+++ (activity was measured to be less than 2.0 μM)	25 to 100	+++ (activity was measured to be less than 2.0 μM)	25 to 100
CC(C)(C)CCN1CCC2(CC[C@@H](NC(=O)C3CCCO3)c3ccccc32)CC1 (stereo partly shown) [compound 220]	+++ (activity was measured to be less than 2.0 μM)	25 to 100	+ (activity was measured to be greater than 5.0 μM)	< 25	+ (activity was measured to be greater than 5.0 μM)	< 25	+ (activity was measured to be greater than 5.0 μM)	< 25
CCN(C(=O)CCOC)[C@H]1CCC2(CCN(CCC(C)(C)C)CC2)c2ccccc21 [compound 221]	+++ (activity was measured to be less than 2.0 μM)	25 to 100	+ (activity was measured to be greater than 5.0 μM)	< 25	+ (activity was measured to be greater than 5.0 μM)	< 25	++ (activity was measured to be from 2.0 μM to 5.0 μM)	25 to 100
CC(C)(C)CCN1CCC2(CC[C@H](N3CCCCC3=O)c3ccc(F)cc32)CC1 [compound 222]	+++ (activity was measured to be less than 2.0 μM)	25 to 100	+ (activity was measured to be greater than 5.0 μM)	< 25	+ (activity was measured to be greater than 5.0 μM)	< 25	+++ (activity was measured to be less than 2.0 μM)	25 to 100
CCN(C(=O)Cc1ccncc1)[C@H]1CCC2(CCN(CCC(C)(C)C)CC2)c2ccccc21 [compound 223]	+++ (activity was measured to be less than 2.0 μM)	25 to 100	+ (activity was measured to be greater than 5.0 μM)	< 25	+ (activity was measured to be greater than 5.0 μM)	< 25	+ (activity was measured to be greater than 5.0 μM)	25 to 100
CC(C)(C)CCN1CCC2(CC[C@H](NC(=O)C(F)(F)F)c3ccccc32)CC1 [compound 224]	+++ (activity was measured to be less than 2.0 μM)	25 to 100	+ (activity was measured to be greater than 5.0 μM)	< 25	+ (activity was measured to be greater than 5.0 μM)	< 25	+++ (activity was measured to be less than 2.0 μM)	25 to 100
CC(C)(C)CCN1CCC2(CC1)C[C@H](NC(=O)C1CCCC1)c1ccccc12 [compound 225]	+ (activity was measured to be greater than 5.0 μM)	< 25	+ (activity was measured to be greater than 5.0 μM)	< 25	+ (activity was measured to be greater than 5.0 μM)	< 25	+ (activity was measured to be greater than 5.0 μM)	< 25
CCN(CC)C(=O)CN1CCC2(CC1)C[C@H](NC(C)=O)c1ccccc12 [compound 226]	+ (activity was measured to be greater than 5.0 μM)	< 25	+ (activity was measured to be greater than 5.0 μM)	< 25	+ (activity was measured to be greater than 5.0 μM)	< 25	+ (activity was measured to be greater than 5.0 μM)	< 25
CCCC(=O)N[C@H]1CC2(CCN(CCC(C)C)CC2)c2ccccc21 [compound 227]	+ (activity was measured to be greater than 5.0 μM)	< 25	+ (activity was measured to be greater than 5.0 μM)	< 25	+ (activity was measured to be greater than 5.0 μM)	< 25	+ (activity was measured to be greater than 5.0 μM)	< 25
CC(=O)N[C@H]1CC2(CCN(CC(N)=O)CC2)c2ccccc21 [compound 229]	+ (activity was measured to be greater than 5.0 μM)	< 25	+ (activity was measured to be greater than 5.0 μM)	< 25	+ (activity was measured to be greater than 5.0 μM)	< 25	+ (activity was measured to be greater than 5.0 μM)	< 25
CCC(=O)N[C@H]1CC2(CCN(CCC(C)(C)C)CC2)c2ccccc21 [compound 230]	–	25 to 100	–	< 25	–	< 25	–	25 to 100
CCC(=O)N[C@H]1CC2(CCN(CCC(C)C)CC2)c2ccccc21 [compound 231]	+++ (activity was measured to be less than 2.0 μM)	< 25	+ (activity was measured to be greater than 5.0 μM)	< 25	+ (activity was measured to be greater than 5.0 μM)	< 25	+ (activity was measured to be greater than 5.0 μM)	< 25
CN1CCC2(CCCc3ccccc32)CC1 [compound 232]	+ (activity was measured to be greater than 5.0 μM)	< 25	+ (activity was measured to be greater than 5.0 μM)	< 25	+ (activity was measured to be greater than 5.0 μM)	< 25	+ (activity was measured to be greater than 5.0 μM)	< 25
